Legend:
[1] = Determination of the equilibrium dampness; type: physicochemical; details: 24 hours at 23° C.; relative humidity at which neither expulsion nor retention of water is effected; lower is better
Text: (§1) The favorable action of the compounds, which are to be used in accordance with the invention, with respect to their capacity for the absorption and retention of water, was established by means of the test methods described hereinafter. A process for determining the equilibrium dampness which is indicative of the water retention capacity, and the determination of the water retention, rehydration and elasticity of impregnated pig epidermis are described in these tests.
The substances (approximately 300 to 500 mg) to be tested were moistened with a defined quantity of water and were exposed for 24 hours at 23° C. to various relative atmospheric humidities (1%, 30%, 47%, 65%, 89% and 100% relative humidity). The quantity of water absorbed or desorbed was determined gravimetrically and plotted on a graph. The relative humidity at which neither expulsion nor retention of water is effected can be determined from the resultant curves. This value, which is designated as the "equilibrium dampness", is a measure of the water retention capacity of a substance. The lower the value, the more positive is the assessment of the product. Furthermore, the hygroscopicity of the substance can be read from the slope of the curve.

pig epidermis [2] = assay: Water retention of impregnated pig epidermis; details: 24 hours, 23° C., soaked 2 h in 10% solution, improvement vs blank value (water only)
Text: as §1
(§2) Immediately after the pigs have been killed, the skin bristles are cut off by means of a shearing machine (shearing head 0.1 mm). The pigs are soaked for approximately 3 to 5 minutes in warm water of 60° C., the epidermis is subsequently peeled off and stored at -20° C. until it is used.
(§3) Stamped out pieces of epidermis (1×2 cm) were soaked for two hours in a 10% solution of the test substance. Excess moisture was then removed under standardized conditions by means of a small press, and the pieces were dried for 24 hours, hanging freely between 2 clamps in a 100 ml Erlenmeyer flask at 23° C., both at 30% relative humidity and 50% relative humidity (set by mixtures of sulfuric acid and water). The drying out of the impregnated test pieces to X% of the initial weight was compared with the corresponding value of the epidermis which had been soaked only in water (blank value). In Table I, the improvement in the water retention and in the rehydration as compared with the blank value is given in Δ% H2 O. The deviations in each double test amounted to a maximum of ±2 absolute units. The test was repeated if greater deviations occurred. The rehydration was determined analogously by drying the pig epidermis, which had been impregnated and from which the excess moisture had been removed, for 24 hours at 30% relative humidity, and by subsequent incubation for 24 hours at 90% relative humidity.

pig epidermis [3] = assay: Rehydration of impregnated pig epidermis; details: dried 24 h at 30% r.h., then incubated 24 h at 90% r.h.; 10% solution; improvement vs blank value
Text: as §1, §2, §3

pig epidermis [4] = assay: Elasticity measurements made on the impregnated pig epidermis; details: 24 hours, soaked 2 h in 10% aqueous solution; for mm stretch with between 5 and 30 pound loading at 75% r.h.: blank value 0; for mm stretch with between 5 and 30 pound loading at 90% r.h.: blank value 0.3-0.5
Description: A process for determining the equilibrium dampness which is indicative of the water retention capacity, and the determination of the water retention, rehydration and elasticity of impregnated pig epidermis are described in these tests.
as §2
Stamped out pieces of pig epidermis (1×6 cm) were soaked for two hours in a 10% aqueous solution of the substance which was to be tested, and excess moisture was removed from these pieces under standarized conditions. […] The amount of stretch in mm, measured in the Hooke range at a load between 5 to 30 pund, was determined as a measure of the elasticity.

Row | SMILES | Equilibrium dampness [1] [% r.h.] | Water Retention, % H2O after drying out at 30% r.h. (pig epidermis [2]) | Water Retention, % H2O after drying out at 50% r.h. (pig epidermis [2]) | Rehydration, Δ% water absorption at 90% r.h. (pig epidermis [3]) | mm stretch with between 5 and 30 pound loading at 75% r.h. (pig epidermis [4]) [mm] | mm stretch with between 5 and 30 pound loading at 90% r.h. (pig epidermis [4]) [mm]
1 | CC(O)CNC(=O)OCCO (stereo not drawn) [Product B, N-(2-hydroxypropyl)-carbamide acid-2-hydroxyethyl ester] | 58 | 23 Δ% H2O | 22 Δ% H2O | 70 Δ% H2O | 1.0 | 6.0
2 | CC1(C)COC(=O)N1 [Product F, 4,4-Dimethyl-oxazolidine-2-one] | 83 | 5 Δ% H2O | 7 Δ% H2O | 5 Δ% H2O | 0.4 | 7.4

Continued, in another order:

Row | Equilibrium dampness [1] [% r.h.] | SMILES | Water Retention, % H2O after drying out at 30% r.h. (pig epidermis [2]) | Water Retention, % H2O after drying out at 50% r.h. (pig epidermis [2]) | Rehydration, Δ% water absorption at 90% r.h. (pig epidermis [3]) | mm stretch with between 5 and 30 pound loading at 75% r.h. (pig epidermis [4]) [mm] | mm stretch with between 5 and 30 pound loading at 90% r.h. (pig epidermis [4]) [mm]
3 | 58 | O=C(NCCO)OCCO [Product A, N-(2-hydroxyethyl)-carbamide acid-2-hydroxyethyl ester] | 25 Δ% H2O | 26 Δ% H2O | 62 Δ% H2O | 1.1 | 5.5
4 | 76 | O=C1NC(CO)(CO)CO1 [Product H, 4,4-bis-hydroxymethyl-oxazolidine-2-one] | 12 Δ% H2O | 15 Δ% H2O | 10 Δ% H2O | 0.5 | 2.6
5 | 68 | O=C1OCCN1CCO [Product I, N-(2-hydroxyethyl)-oxazolidine-2-one] | 10 Δ% H2O | 16 Δ% H2O | 16 Δ% H2O | 0.8 | 6.0

From US4382765A, “Method of moisturizing the skin with carbamide acid esters” (Henkel Kommanditgesellschaft auf Aktien, priority 1977, dated 1983)
